The results in this text go back to patent EP3958980B1, “TARGETED NOVEL TRIAZOLOTHIADIAZINE DERIVATIVES FOR THE TREATMENT OF LUNG CANCER” (Anadolu Universitesi, priority 2020, dated 2021).

Series [1] relates to A549 cells. Put plainly: Cell cycle arrest by flow cytometry. It is filed as cell-based, human. The following applies: IC50 doses, 24 hours. The protocol: After the active compounds were determined with the MTT assay, their effects on the cell cycle in A549 cells depending on IC50 concentrations were carried out according to the manufacturer's recommendations. Briefly, the cells were suspended in a citrate buffer solution. The cells were centrifuged at 400 × g for 5 minutes at room temperature. The supernatant was removed and 250 µL solution A was added on the pellet. Following this, 200 µL solution B was added and it was kept at room temperature 10 minutes. Afterwards 200 µL solution C was added and it was kept at +4 °C for 10 minutes. The cells were analyzed with flow cytometry using BD Biosciences ModFit software.
For orientation: Flow cytometry measures light scatter and fluorescence of single cells or particles in a stream.

In series [2] the test system is A549 cells. As to the kind of experiment: Annexin V FITC / PI flow cytometry (apoptosis). The settings on record: IC50 concentrations; for Early apoptotic cells% / Late apoptotic cells% / Necrosis% / Viable cells%: 24 hours; for early and late apoptotic effects: sum of early and late apoptotic cells. Type of series: cell-based, human. The protocol: Briefly, after the cells were centrifuged for 4 minutes at 800 rpm, they were washed twice with 1 × PBS and were suspended in the 1 × Annexin-V binding solution at a concentration of 2-3 × 10^6 cell/mL and then 100 µL of the cell solution was transferred into tubes. Then, 5 µL of Annexin-V Fluorescein isothiocyanate (FITC) and 10 µL of propidium iodide (PI) solution were added to each tube, after incubation for 15 minutes at room temperature, 400 µL × Annexin-V binding solution was added to each tube and the cells were analyzed by flow cytometry (BD FACSCalibur™) within 1 hour. The early and late apoptotic cell percentages were calculated according to positive control.

Series [3] concerns A549 human lung adenocarcinoma cells. As to the kind of experiment: MTT assay, in vitro cytotoxic activity on A549. The settings on record: for IC50: Homo sapiens, A549, 24 hour incubation, read-out: IC50 values (µg/mL) A549 cell line. It is filed as cell-based. The protocol:
(§1) The in vitro cytotoxic effects of the compounds were determined with the MTT assay. For this purpose, MTT test was performed using A549 and CCD-19Lu cell lines. After the cell lines used in the invention were centrifuged following taking them out from liquid nitrogen (-196 °C), the cells were cultured in a CO2 incubator comprising 5% CO2 at 37 °C in flasks containing 10% fetal bovine serum (FBS), where CCD-19Lu cells were cultured with Dulbecco's Modified Eagle's Medium (DMEM) and A549 cells were cultured with Roswell Park Memorial Institute (RPMI). The cells that reach the sufficient number for the assay, were seeded to 96 well plates such that 2×10^3 cells were placed in each well and at the same time, components at concentrations of 1-500 µg/mL were added to cells and they were incubated at 37 °C. At the end of the 24 hour incubation period, the MTT powder (5 mg/mL in 1 × phosphate buffered saline (PBS)) was added to each well (20 µL). After a 2-4 h period under the same conditions, the medium was removed from the plate and 100 µL of DMSO was added to each well to dissolve the dye and kept for 10 minutes. Then the plates were read at a wavelength of 540 nm using ELx808-IU Bio-Tek plate reader. The control cell viability which was not treated with the components was accepted to be 100% and the viability rates of the cells were expressed as %. […] According to the results obtained, the dose range was extended until the IC50 value was determined. MTT assay is a frequently used method which measures the cytotoxic effects of the compounds on the cells by converting the yellow colored MTT stain into purple colored formazan crystals via the mitochondrial succinate dehydrogenase activity. In the cytotoxic activity tests of the compounds, A549 lung adenocarcinoma and CCDLu19 normal lung fibroblast cell lines were used.

The subject of series [4] is caspase-3. As to the kind of experiment: Caspase-3 activity by flow cytometry. It is filed as cell-based, human. The settings on record: A549 cells, 24 hours, IC50 concentrations. The protocol:
After the active compounds were determined with the MTT assay, their caspase-3 activities on A549 cells depending on IC50 concentrations were determined in flow cytometry with BD, Pharmingen flow cytometry kit according to the manufacturer's recommendations. Briefly, the cells were incubated at the determined doses and times with the compounds. The cells were washed twice with cold 1 X PBS. These cells were suspended with BD Cytofix/Cytoperm solution (1×10^6 cell / 0.5 mL). Then they were left to wait on ice for 20 minutes. After centrifugation, the cells were removed with the BD Cytofix/Cytoperm solution. The cells were washed twice with BD Perm/Wash™ buffer (1×10^6 cell/0.5 mL). Afterwards the cells were re-suspended with BD Perm/Wash™ buffer and antibodies and they were kept at room temperature for 30 minutes. For each test, the cells were washed in 1 mL BD Perm/Wash^TM buffer and were suspended in 0.5 mL BD Perm/Wash^TM buffer and they were analyzed with flow cytometry.

Series [5] concerns CCD-19Lu normal lung fibroblast cells. Put plainly: MTT assay, in vitro cytotoxic activity on CCD-19Lu. It is filed as cell-based. The following applies: for IC50: Homo sapiens, CCD 19Lu, 24 hour incubation, read-out: IC50 values (µg/mL) CCDLul9 cell line. The protocol: as §1, with “determined.” for “determined. MTT assay is a frequently used method which measures the cytotoxic effects of the compounds on the cells by converting the yellow colored MTT stain into purple colored formazan crystals via the mitochondrial succinate dehydrogenase activity. In the cytotoxic activity tests of the compounds, A549 lung adenocarcinoma and CCDLu19 normal lung fibroblast cell lines were used.”
MTT assay is a frequently used method which measures the cytotoxic effects of the compounds on the cells by converting the yellow colored MTT stain into purple colored formazan crystals via the mitochondrial succinate dehydrogenase activity. In the cytotoxic activity tests of the compounds, A549 lung adenocarcinoma and CCDLu19 normal lung fibroblast cell lines were used.

Values after ≈ are worked out from the molar mass of the structure shown. Values joined by “and” are separate entries in the source; they are usually repeats but may differ in a detail not shown here. Equal entries are not always repeated.

As for `N.N.[Cl][Pt][Cl]` [Cisplatin, reference compound], in series [1], the G0/G1% is 45.92%, the G2/M% is listed as 4.00% and the S% was 50.07%. Moreover, in series [2], the Early apoptotic cells% amounted to 14.70%; the Late apoptotic cells% is 30.10%; the Necrosis% was determined as 28.70%; the “early and late apoptotic effects” value is 44.80%. Also, in series [3] (24 hour incubation), the “IC50 values (µg/mL) A549 cell line” value came to 23.00 ± 1.41 µg/mL. For the same compound, in series [4], the “Caspase-3 negative (-) cells%” value worked out at 89.70% and the “Caspase-3 positive (+) cells%” value is given as 10.30%.
In series [1], `CS(=O)(=O)c1ccc(C2=Nn3c(CCc4ccc5c(c4)OCO5)nnc3SC2)cc1` [Compound 9] returned a G0/G1% of 53.29%, a G2/M% of 9.66% and a S% of 37.04%. Moreover, in series [5], the “cytotoxicity against CCDLu19 cells (in words)” value (“cytotoxicity” for short) is on record as “non-cytotoxic” and the IC50 is 102 ± 10.4 µg/mL (≈ 230 µM). In addition, in series [2], the Early apoptotic cells% is listed as 5.00%, the Late apoptotic cells% turned out to be 16.20%, the Necrosis% was 6.30% and the Viable cells% was 72.50%. For the same compound, the “early and late apoptotic effects” value in series [2] amounted to 21.20%. In addition, in series [3], the IC50 stood at 5.75 ± 2.47 µg/mL (≈ 13 µM). In addition, in series [4], the “Caspase-3 negative (-) cells%” value is listed as 96.70% and the “Caspase-3 positive (+) cells%” value was found to be 3.40%.
Regarding `FC(F)(F)c1ccc(C2=Nn3c(CCc4ccc5c(c4)OCO5)nnc3SC2)cc1` [Compound 11, 3-[2-(1,3-Benzodioxole-5-yl)ethyl]-6-(4-trifluoromethylphenyl)-7H-[1,2,4]triazolo [3,4-b][1,3,4]thiadiazine], in series [1], the G0/G1% came to 57.29%, the G2/M% is listed as 8.15% and the S% was determined as 34.57%. Further, in series [5], the “cytotoxicity” value is “non-cytotoxic” and the IC50 turned out to be 113 ± 5.77 µg/mL (≈ 262 µM). In series [2], this compound showed an Early apoptotic cells% of 2.90%, a Late apoptotic cells% of 9.90%, a Necrosis% of 14.80% and a Viable cells% of 72.30%. Also, the “early and late apoptotic effects” value in series [2] was found to be 12.80%. The IC50 in series [3] was found to be 0.73 ± 0.16 µg/mL (≈ 1.69 µM). For the same compound, in series [4], the “Caspase-3 negative (-) cells%” value amounted to 97.00% and the “Caspase-3 positive (+) cells%” value was determined as 3.10%.
As to `Fc1cccc(C2=Nn3c(CCc4ccc5c(c4)OCO5)nnc3SC2)c1` [Compound 12, 3-[2-(1,3-Benzodioxole-5-yl)ethyl]-6-(3-fluorophenyl)-7H-[1,2,4]triazolo [3,4-b] [1,3,4]thiadiazine], in series [1], the G0/G1% came out at 54.20%, the G2/M% worked out at 6.52% and the S% is 39.28%. In addition, in series [5], the “cytotoxicity” value was “non-cytotoxic” and the IC50 is 34.3 ± 2.08 µg/mL (≈ 89.8 µM). In series [2], this compound gave an Early apoptotic cells% of 4.80%, a Late apoptotic cells% of 29.70%, a Necrosis% of 40.80% and a Viable cells% of 24.70%. Besides, the “early and late apoptotic effects” value in series [2] was 34.50% and 25.90%. For the same compound, the IC50 in series [3] was 0.8 ± 0.05 µg/mL (≈ 2.09 µM). For the same compound, in series [4], the “Caspase-3 negative (-) cells%” value is reported as 97.80% and the “Caspase-3 positive (+) cells%” value is given as 2.40%.
In the case of `c1ccc(-c2ccc(C3=Nn4c(CCc5ccc6c(c5)OCO6)nnc4SC3)cc2)cc1` [Compound 14, 3-[2-(1,3-Benzodioxole-5-yl)ethyl]-6-(biphenyl-4-yl)-7H-[1,2,4]triazolo[3,4-b] [1,3,4]thiadiazine], in series [1], the G0/G1% came out at 54.92%, the G2/M% came to 7.91% and the S% is listed as 37.17%. In series [5], the “cytotoxicity” value is “non-cytotoxic” and the IC50 is 65 ± 5 µg/mL (≈ 148 µM). Besides, in series [2], the Early apoptotic cells% turned out to be 4.20%, the Late apoptotic cells% is 21.70%, the Necrosis% came to 34.60% and the Viable cells% turned out to be 39.50%. For the same compound, the “early and late apoptotic effects” value in series [2] was 25.90% and 34.50%. Also, the IC50 in series [3] amounted to 2.63 ± 0.72 µg/mL (≈ 5.97 µM). In addition, in series [4], the “Caspase-3 negative (-) cells%” value was 96.60% and the “Caspase-3 positive (+) cells%” value came to 3.70%.
